This is an account of results in patent publication US20200299329A1, “SYNTHETIC PEPTIDES, PHARMACEUTICAL COMPOSITIONS COMPRISING THE SAME, AND USES THEREOF IN TREATING THROMBOEMBOLISM-RELATED DISEASES” (Academia Sinica, priority 2019, published 2020).

The subject of one data set is human thrombus. As to the kind of experiment: Screening of thrombus-binding activity of phages by ELISA. Conditions: for dose-dependent thrombus-specific binding by ELISA: BSA binding as negative control, FIG. 1C/1D; for binding affinity to human thrombus (ELISA, absorption at 450 nm): screening of 72 phage clones from the fifth round of biopanning, FIG. 1B. Here is the method: A human thrombus was isolated and collected from a cadaver about 20 years ago in a course of fresh cadaver dissection and partial thrombus was grounded to powder and then incubated with 2×10^11 phages in 1% BSA in PBS at 4° C. for 1 hour. After washing with PBS, the bound phages were eluted from the thrombus tissue and amplified using E. coli for subsequent rounds of selection. The eluted and amplified phages were titrated on lysogeny broth (LB) medium plates containing isopropyl β-D-1-thiogalactopyranoside (IPTG) and X-Gal (5-bromo-4-chloro-3-indolyl-D-galactoside). The biopanning steps described above were repeated five times before phage clones were randomly selected for thrombus ELISA screening.
The grinded human thrombus tissue or BSA in coating buffer was used to coat 96-well ELISA plates overnight. After blocking and washing, the selected phage clones were added and incubated for 1 hour at room temperature (RT). After washing with PBS, each well was probed with horseradish peroxidase (HRP)-conjugated mouse anti-M13 antibodies (1:2000 dilution) for 1 hour at RT. After repeating the wash step, the plates were developed with ELISA substrate solution. The reaction was terminated with 3N hydrochloric acid, and the absorbance of the colorimetric substrate was analyzed using a microplate reader at 450 nm.

For another data set, the system named is induced thrombus. Nature of the data set: In vivo infrared fluorescence imaging of HILYTE FLUOR 750-conjugated protein at the thrombus. Conditions: FIG. 5B. Also on record: species or system mice. Here is the method:
Fifty micrograms of tPA or targeting peptide-tPA fusion and 4 nM HILYTE FLUOR™ 750 were mixed for 45 minutes at RT to promote conjugation. The solution was dialyzed with a 3.5-kDa-cut-off membrane overnight at 4° C. Time-course fluorescence measurements were made in mice with thrombi after intravenous injection of HILYTE FLUOR™ 750-labeled tPA or targeting peptide-tPA fusion protein. Fluorescence images were captured using an imaging system. Accumulation of HILYTE FLUOR™ 750 in the thrombus was quantified by subtracting background florescence intensity.
Fifty micrograms of thrombus affinity peptide-tPA was mixed with 4 nM HILYTE FLUOR™ 750 and incubated for 45 minutes at RT in the dark to promote the conjugation. Dialysis was performed with a 3.5-kDa-cut-off membrane overnight at 4° C. to remove excess dye. A time-course of infrared fluorescence images were acquired after intravenous injection of HILYTE FLUOR™ 750-conjugated fusion protein or tPA. Infrared fluorescence images of HILYTE FLUOR™ 750-conjugated protein were captured in living using an imaging system. Accumulation of HILYTE FLUOR™ 750 fluorescence signal in the induced thrombus was quantified and analyzed by software.

Where only a bound is given, the exact number is not on record here.

On to FQNEWFHNFLHD [PC30], for which, in the data set with human thrombus, the “dose-dependent thrombus-specific binding by ELISA” value was “best thrombus-specific binding” and the “binding affinity to human thrombus (ELISA, absorption at 450 nm)” value was “relatively high binding affinity”.
The corresponding values for LQKNPFDLVQIL [PC66] are “best thrombus-specific binding” and “relatively high binding affinity”.
The corresponding values for TEANLSSWVFAR [PC39] are “best thrombus-specific binding” and “relatively high binding affinity”.
As for “tPA: human recombinant tissue plasminogen activator without thrombus binding peptide, used as control”, the “time after injection at which accumulation at the induced thrombus was seen” value with induced thrombus (dye-conjugated protein, i.v., mice with induced thrombus) is at most 5 min. The “decrease of fluorescence intensity at the induced thrombus” value with induced thrombus (in 1 hour after i.v. injection) is 50%.
